Results published in US10294202B2, “Pyrrolidinones as herbicides” (FMC Corporation, priority 2013, dated 2019).

Experiments:
watergrass, late = experiment: Test F flood (paddy) test; assay type: in vivo, Echinochloa oryzicola; conditions: 21 d, scale 0-100
Description: Three plastic pots (ca. 16-cm diameter) per rate were partially filled with sterilized Tama silt loam soil comprising a 35:50:15 ratio of sand, silt and clay and 2.6% organic matter. Separate plantings for each of the three pots were as follows. Seeds from the U.S. of monochoria (Monochoria vaginalis), sedge, umbrella (small-flower umbrella sedge, Cyperus difformis), bulrush, […] bulrush, Scirpus juncoides), and […] (purple […] coccinea), were planted into one 16-cm pot for each rate. Seeds from the U.S. of flatsedge, rice (rice flatsedge, Cyperus iria), sprangletop, Brdd. (bearded sprangletop, Leptochloa fascicularis), one stand of 9 or 10 water seeded rice seedlings (Rice, W.S. Jap, Oryza sativa cv. 'Japonica-[…]' or Rice, W.S. Ind, 'Indica'), and two stands of 3 or 4 seedlings of rice, transplanted (transplanted rice, Oryza sativa cv. 'Japonica-[…]') were planted into one 16-cm pot for each rate. Seeds from the U.S. of barnyardgrass (Echinochloa crus-galli), […] (common […], Alisma plantago-aquatica), and watergrass, late (late watergrass, Echinochloa oryzicola) were planted into one 16-cm pot for each rate. Plantings were sequential so that crop and weed species were at the 2.0 to 2.5-leaf stage at time of treatment. Potted plants were grown in a greenhouse with day/night temperature settings of 30/27° C., and supplemental balanced lighting was provided to maintain a 16-h photoperiod. Test pots were maintained in the greenhouse until test completion. At time of treatment, test pots were flooded to 3 cm above the soil surface, treated by application of test compounds directly to the paddy water, and then maintained at that water depth for the duration of the test. Effects of treatments on rice and weeds were visually evaluated by comparison to untreated controls after 21 d. Plant response ratings, summarized in Table F, are based on a scale of 0 to 100 where 0 is no effect and 100 is complete control. A dash (-) response means no test result.

field bindweed = experiment: Test E preemergence herbicide test; assay type: in vivo, Convolvulus arvensis; design: key: 0 = no effect, 100 = complete control
Description: (§1) Seeds of plant species selected from corn (Zea mays), soybean (Glycine max), velvetleaf (Abutilon theophrasti), lambsquarters (Chenopodium album), wild poinsettia (Euphorbia heterophylla), pigweed, palmer (palmer pigweed, Amaranthus palmeri), waterhemp (common waterhemp, Amaranthus rudis), surinam grass (Brachiaria decumbens), crabgrass, large (large crabgrass, Digitaria sanguinalis), crabgrass, Brazil (Brazilian crabgrass, Digitaria horizontalis), panicum, fall (fall panicum, Panicum dichotomiflorum), foxtail, giant (giant foxtail, Setaria faberii), foxtail, green (green foxtail, Setaria viridis), goosegrass (Eleusine indica), johnsongrass (Sorghum halepense), ragweed (common ragweed, Ambrosia elatior), barnyardgrass (Echinochloa crus-galli), sandbur (southern sandbur, Cenchrus echinatus), arrowleaf […] rhombifolia), ryegrass, Italian (Italian ryegrass, Lolium multiflorum), dayflower, VA (Virginia dayflower, Commelina virginica), field bindweed (Convolvulus arvensis), morningglory (Ipomoea coccinea), nightshade (eastern black nightshade, Solanum ptycanthum), kochia (Kochia scoparia), nutsedge, yellow (yellow nutsedge, Cyperus esculentus), cocklebur (common cocklebur, Xanthium strumarium), smartweed (ladysthumb smartweed, Polygonum Persicaria) and beggarticks (hairy beggarticks, Bidens pilosa), were planted into a silt loam soil and treated preemergence with test chemicals formulated in a non-phytotoxic solvent mixture which included a surfactant. Treated plants and controls were maintained in a greenhouse for 21 days, after which time all species were compared to controls and visually evaluated. Plant response ratings, summarized in Table E, are based on a scale of 0 to 100 where 0 is no effect and 100 is complete control. A dash (-) response means no test result.

wild poinsettia = experiment: Test E preemergence herbicide test; assay type: in vivo, Euphorbia heterophylla; design: key: 0 = no effect, 100 = complete control
Description: as §1

kochia = experiment: Test D pre-/postemergence herbicide test; assay type: in vivo, Kochia scoparia; conditions: for Plant response rating: Kochia, scale 0 to 100; for Plant response rating, Kochia: scale 0 to 100 (0 no effect, 100 complete control)
Description: Seeds of plant species selected from bluegrass (annual bluegrass, Poa annua), blackgrass (Alopecurus myosuroides), canarygrass (littleseed canarygrass, Phalaris minor), chickweed (common chickweed, Stellaria media), galium (catchweed bedstraw, Galium aparine), bromegrass, downy (downy bromegrass, Bromus tectorum), field poppy (Papaver rhoeas), field violet (Viola arvensis), foxtail, green (green foxtail, Setaria viridis), deadnettle (henbit deadnettle, Lamium amplexicaule), ryegrass, Italian (Italian ryegrass, Lolium multiflorum), kochia (Kochia scoparia), lambsquarters (Chenopodium album), oilseed rape (Brassica napus), pigweed (Amaranthus retroflexus), chamomile (scentless chamomile, Matricaria inodora), Russian thistle (Salsola kali), speedwell (bird's-eye speedwell, Veronica persica), barley, spring (spring barley, Hordeum vulgare), wheat, spring (spring wheat, Triticum aestivum), buckwheat, wild (wild buckwheat, Polygonum convolvulus), mustard, wild (wild mustard, Sinapis arvensis), oat, wild (wild oat, Avena fatua), radish, wild (wild radish, Raphanus raphanistrum), […]), barley, winter (winter barley, Hordeum vulgare), and wheat, winter (winter wheat, Triticum aestivum) were planted into a silt loam soil and treated preemergence with test chemicals formulated in a non-phytotoxic solvent mixture which included a surfactant. At the same time, these species were planted in pots containing Redi-Earth® planting medium (Scotts Company, 14111 Scottslawn Road, Marysville, Ohio 43041) comprising spaghnum peat moss, vermiculite, wetting agent and starter nutrients and treated with postemergence applications of the test chemicals formulated in the same manner. Plants ranged in height from 2 to 18 cm (1- to 4-leaf stage). Treated plants and controls were maintained in a controlled growth environment for 7 to 21 days after which time all species were compared to controls and visually evaluated. Plant response ratings, summarized in Table D, are based on a scale of 0 to 100 where 0 is no effect and 100 is complete control. A dash (-) response means no test result.

velvetleaf = experiment: Test E preemergence herbicide test; assay type: in vivo, Abutilon theophrasti; design: key: 0 = no effect, 100 = complete control
Outline: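 Test chemicals, formulated in a surfactant-containing non-phytotoxic solvent blend, are applied preemergence to seeded silt loam soil. After 21 days in the greenhouse, response is scored visually relative to controls, where 100 means complete control and 0 means no effect.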

lambsquarters = experiment: Test E preemergence herbicide test; assay type: in vivo, Chenopodium album; design: key: 0 = no effect, 100 = complete control
Description: as §1

corn = experiment: Test E preemergence herbicide test; assay type: in vivo, Zea mays; design: key: 0 = no effect, 100 = complete control
Description: as §1

| Compound | Plant response rating, Watergrass, Late (watergrass, late; 125 g ai/ha) | Plant response rating, Watergrass, Late (watergrass, late; 250 g ai/ha) | Plant response rating, Watergrass, Late (watergrass, late; 500 g ai/ha) | Plant response rating, Watergrass, Late (watergrass, late; 1000 g ai/ha) | Plant response rating, Watergrass, Late (watergrass, late; 2000 g ai/ha) | Plant response rating, Field Bindweed (field bindweed; 16 g ai/ha) | Plant response rating, Field Bindweed (field bindweed; 31 g ai/ha) | Plant response rating, Field Bindweed (field bindweed; 62 g ai/ha) | Plant response rating, Field Bindweed (field bindweed; 125 g ai/ha) | Plant response rating, Field Bindweed (field bindweed; 250 g ai/ha) | Plant response rating, Poinsettia, Wild (wild poinsettia; 16 g ai/ha) | Plant response rating, Poinsettia, Wild (wild poinsettia; 31 g ai/ha) | Plant response rating, Poinsettia, Wild (wild poinsettia; 62 g ai/ha) | Plant response rating, Poinsettia, Wild (wild poinsettia; 125 g ai/ha) | Plant response rating, Poinsettia, Wild (wild poinsettia; 250 g ai/ha) | Plant response rating (kochia; Postemergence, 31 g ai/ha) | Plant response rating (kochia; Postemergence, 62 g ai/ha) | Plant response rating (kochia; Postemergence, 125 g ai/ha) | Plant response rating (kochia; Postemergence, 250 g ai/ha) | Plant response rating, Velvetleaf (velvetleaf; 16 g ai/ha) | also measured |
| --- | --- | --- | --- | --- | --- | --- | --- | --- | --- | --- | --- | --- | --- | --- | --- | --- | --- | --- | --- | --- | --- |
| O=C1NCC(c2ccc(F)c(F)c2)C1C(=O)Nc1cccc(F)c1F (racemic) [Compound 101] | 75 | 85 | 85 | – | – | – | – | – | – | – | – | – | – | – | – | – | – | – | – | – | Plant response rating, Watergrass, Late (watergrass, late; 64 g ai/ha): 65 |
| O=C1NCC(c2cccc(C(F)F)c2)C1C(=O)Nc1ccccc1F (racemic) [Compound 210] | 55 | 75 | 90 | – | – | – | – | – | – | – | – | – | – | – | – | – | – | – | – | – | – |
| O=C1NCCC1C(=O)N(c1ccc(F)c(F)c1)c1ccccc1F (stereo not drawn) [Compound 5, N-(3,4-difluorophenyl)-N-(2-fluorophenyl)-2-oxo-3-pyrrolidinecarboxamide] | 55 | 70 | 75 | 100 | 100 | – | – | – | – | – | – | – | – | – | – | – | – | – | – | – | – |
| O=C1NCC(c2ccc(F)c(F)c2)C1C(=O)Nc1cccc(F)c1F (stereo not drawn) [Compound 17, N-(2,3-difluorophenyl)-4-(3,4-difluorophenyl)-2-oxo-3-pyrrolidinecarboxamide] | 80 | 85 | 90 | 90 | 95 | 0 | 0 | 0 | 0 | 0 | 0 | 0 | 0 | 0 | 20 | 0 | 20 | 20 | 40 | 0 | Plant response rating (kochia; Postemergence, 16 g ai/ha): 0; Plant response rating, Velvetleaf (velvetleaf; 31 g ai/ha): 0; Plant response rating, Velvetleaf (velvetleaf; 62 g ai/ha): 0; Plant response rating, Velvetleaf (velvetleaf; 125 g ai/ha): 0; Plant response rating, Velvetleaf (velvetleaf; 250 g ai/ha): 0; Plant response rating, Lambsquarters (lambsquarters; 16 g ai/ha): 0; Plant response rating, Lambsquarters (lambsquarters; 31 g ai/ha): 0; Plant response rating, Lambsquarters (lambsquarters; 62 g ai/ha): 0; Plant response rating, Lambsquarters (lambsquarters; 125 g ai/ha): 0; Plant response rating, Lambsquarters (lambsquarters; 250 g ai/ha): 0; Plant response rating, Corn (corn; 16 g ai/ha): 0; Plant response rating, Corn (corn; 31 g ai/ha): 0; Plant response rating, Corn (corn; 62 g ai/ha): 0; Plant response rating, Corn (corn; 125 g ai/ha): 0; Plant response rating, Corn (corn; 250 g ai/ha): 0 |
| O=C1NCC(c2ccc(C(F)(F)F)cc2)C1C(=O)Nc1cccc(F)c1F (stereo not drawn) [Compound 80, N-(2,3-difluorophenyl)-2-oxo-4-[4-(trifluoromethyl)phenyl]-3-pyrrolidinecarboxamide] | – | – | – | – | – | 0 | 0 | 0 | 0 | 0 | 0 | 0 | 0 | 0 | 0 | 65 | 75 | 70 | 75 | 0 | Plant response rating, Kochia (kochia; Preemergence, 62 g ai/ha): 35; Plant response rating, Kochia (kochia; Preemergence, 31 g ai/ha): 15; Plant response rating (kochia; Preemergence, 125 g ai/ha): 70; Plant response rating (kochia; Preemergence, 250 g ai/ha): 75; Plant response rating, Velvetleaf (velvetleaf; 31 g ai/ha): 0; Plant response rating, Velvetleaf (velvetleaf; 62 g ai/ha): 0; Plant response rating, Velvetleaf (velvetleaf; 125 g ai/ha): 0; Plant response rating, Velvetleaf (velvetleaf; 250 g ai/ha): 0; Plant response rating, Lambsquarters (lambsquarters; 16 g ai/ha): 50; Plant response rating, Lambsquarters (lambsquarters; 31 g ai/ha): 80; Plant response rating, Lambsquarters (lambsquarters; 62 g ai/ha): 85; Plant response rating, Lambsquarters (lambsquarters; 125 g ai/ha): 90; Plant response rating, Lambsquarters (lambsquarters; 250 g ai/ha): 90; Plant response rating, Corn (corn; 16 g ai/ha): 0; Plant response rating, Corn (corn; 31 g ai/ha): 0; Plant response rating, Corn (corn; 62 g ai/ha): 0; Plant response rating, Corn (corn; 125 g ai/ha): 0; Plant response rating, Corn (corn; 250 g ai/ha): 30 |
| CN1CC(c2ccc(F)c(F)c2)C(C(=O)Nc2cccc(F)c2F)C1=O (stereo not drawn) [Compound 303] | 95 | 100 | 100 | – | – | – | – | – | – | – | – | – | – | – | – | – | – | – | – | – | Plant response rating, Watergrass, Late (watergrass, late; 62 g ai/ha): 95 |
